In article PMC8602723, “Comparative assessment of antimicrobial, antiradical and cytotoxic activities of cannabidiol and its propyl analogue cannabidivarin” (Scientific Reports, 2021):

Legend:
[1] = DPPH assay (radical scavenging); conditions: 50% reduction of initial DPPH radical absorbance, 30 min; 95% confidence limits in brackets
Method: DPPH assay was performed following the protocol described by Brand-Williams et al.[69]. DPPH^⋅ was dissolved in methanol, generating a purple solution (101.43 µM). […] Furthermore, 940 μL of methanol and 60 μL of distilled water were used for the blank. Trolox was used as the standard control, and methanol was used as the solvent control.
The results were expressed as the median effective concentration of sample able to reduce the initial absorbance of the DPPH radical (EC50). Furthermore, TEAC values were calculated in line with Shimamura end colleagues[68] as previously reported.
(§1) All results from five independent experiments are expressed as the IC50 or EC50 as determined by analysis with Prism 5 software (GraphPad Inc., San Diego, CA, USA) and nonlinear regression (log agonist vs. normalized response-variable slope) with a 95% confidence range. Lowest observed adverse effect concentrations (LOAECs) were calculated by one-way ANOVA and Dunnett’s comparison test. Differences compared to the controls were considered significant as follows: *p < 0.05, **p < 0.001 and ***p < 0.0001.

[2] = ABTS assay (radical scavenging); conditions: 50% reduction of initial ABTS radical absorbance, 6 min; 95% confidence limits in brackets
Method: An ABTS assay was performed following the procedure described by Lavorgna et al. 2019[66]. The cationic ABTS radical (ABTS^+) was generated by oxidizing ABTS (7 mM) with potassium persulfate (140 mM K2S2O8), and the mixture was incubated for 12–16 h in the dark. The ABTS^+ working solution was diluted to an absorbance of […] OD at 734 nm. […] Distilled water was used for the blank, Trolox was used for the standard control, and methanol was used for the solvent control.
The results are expressed as the median effective concentration (EC50). Furthermore, Trolox equivalent antioxidant capacity (TEAC) values were calculated following the procedure used by Shimamura end colleagues[68]:5 TEAC=EC50Trolox/EC50sample
as §1

Cc1c(C)c2c(c(C)c1O)CCC(C)(C(=O)O)O2 (centres unmarked) [TROLOX, 6-Hydroxy-2,5,7,8-tetramethylchromane 2-carboxylic acid, reference compound]
EC50 [1]: 327 µM | EC50 [2]: 111 µM
